Patent US8476240B2, “Histidine related compounds for identifying and blocking amyloid beta ion channels” (priority 2008, dated 2013)
Entries after “also recorded” stand apart in the source; their conditions may differ. Read-outs that look alike come from different tables or passages of the source. Residues, ends and D or L forms follow the SMILES beside them.

Key:
Aβ channel = experiment: Aβ channels incorporated into planar lipid bilayers, ionic current recording; format: biochemical; details: for blocking of the flow of ionic charges conducted by Aβ channels: His 41.5 μM, NAHIS compounds 16.6 μM (FIG. 5B); for blocking of Aβ channel current activity / reversibility of Aβ channel blockage after washing the chamber: planar lipid bilayer; for blocking of Aβ channel current activity: zero membrane potential; for time to reduce the flow of ionic charges through the membrane by 50%: 16.6 μM; for reversibility of Aβ channel blockage after washing the chamber: after washing off the blocker; for time to block the flow of ionic charges through Aβ channels: 41.5 μM (FIG. 5B left plot)
Protocol: Planar Lipid Bilayer Methodology: A suspension of palmitoyloleoyl phosphatidylserine and palmitoyloleoyl phosphatidylethanolamine, (Avanti, Alabaster, Ala.) 1:1, in η-decane was prepared. This suspension was applied to an orifice of about 100-120 μm in diameter with a Teflon film separating two compartments, 1.2 ml volume each. The ionic solutions in the compartments contained asymmetrical concentrations of CsCl (200cis/50trans mM) and symmetrical 0.5 mM CaCl2 and 5 mM K-HEPES, pH 7. The two ionic compartments were electrically connected to the input of a voltage clamp amplifier. Current was recorded using a patch clamp amplifier and data were stored on computer disk memory. Off-line analysis of the channel activity was carried out using the software package pClamp (Axon Instruments, Foster City, Calif.). Incorporation of Aβ peptide into the bilayer was obtained by adding an aliquot of proteoliposome (Aβ-liposome) suspension to the solution in the cis side of the planar lipid bilayer chamber and stirring.
Preparation of Proteoliposomes: Liposomes were prepared by hydration of air-dried palmitoyloleoyl phosphatidylserine (10 mg) with 1 M potassium aspartate, pH 7.0 (1 ml), followed by water sonication for 5 min. The liposome suspension (50 μl) was mixed with a stock aqueous solution of Aβ peptide (1 mg/ml, obtained from Bachem, Torrance, Calif. and from AnaSpec, San Jose, Calif.), followed by sonication.
Based on the theoretical model proposed by Durell et al. (1994), the predicted pore region of the Aβ channel is made of the hydrophilic structure composed of residues 1-16. The structure formed by a radial polymer of four to six Aβ subunits predicts that rings of His residues surround and form the path for the ions passing through the pore. […] This interaction will block the entrance to the Aβ pore, and consequently affect the flow of current through the Aβ channel. Therefore, various compounds of known His coordinating capacity were studied for their interaction with Aβ channels incorporated into planar lipid bilayers. No membrane potential difference was applied to the lipid bilayers, to avoid any disturbing effect the membrane potential may have on the channel activity and in the conformations of the channel.
Here the effectiveness of the His-coordinating and His-related compounds was studied in terms of the time required to block the Aβ channel currents. […] When Aβ channels are incorporated into artificial membranes, they form multi-conductance systems. This is manifested by frequently fluctuating conductance between specific levels. […] The results were analyzed by an alternative procedure that quantifies the total ionic current flowing through the Aβ channel incorporated into the artificial lipid membrane at any given time. For this purpose, we integrated the total ionic current flowing through the membrane and averaged the amount of charge conducted in consecutive time intervals of 8 msec duration.
Planar Lipid Bilayer Methodology and Preparation of Proteoliposomes: The experiments were performed as described previously except that the suspension of palmitoyloleoyl phosphatidylserine and palmitoyloleoyl phosphatidylethanolamine was applied to an orifice of about 80-100 μm in diameter with a Teflon film separating two compartments. In addition, the liposome suspension (50 μl) was mixed with a stock aqueous solution of Aβ40 (1 mg/ml; obtained from Invitrogen, Carlsbad, Calif.).

PC12 cells [1] = experiment: Protection of PC12 cells from Aβ cytotoxicity (LDH release / cell viability assay); format: cell-based
Protocol: Previous studies have shown that the native peptide fragments from the Aβ polypeptide, NA4 (SEQ ID NO: 3) and NA7 (SEQ ID NO: 4), are able to block Aβ channel activity and protect cells from Aβ cytotoxicity. […] The concentration required for 50% protection (half maximal effective concentration, EC50) for NAHIS04 was less than 1 μM (Panel B). It was also between 2-3 times less than the EC50 for either NA4 or NA7.

PC12 cells [2] = experiment: Aβ-induced intracellular free calcium change in FURA-2AM loaded PC12 cells; format: cell-based, rat; details: Aβ 7.66 μM; for block of Aβ-induced intracellular calcium increase: compound 16.66 μM, 15 minute time course
Protocol: Intracellular Free Calcium measurements: Cells were plated on glass cover slips coated with poly-L-lysine and loaded with 2 μM FURA-2AM (Molecular Probes) calcium sensitive probe in incubation buffer (135 mM NaCl, 5 mM KCl, 2.5 mM CaCl2, 1.2 mM MgCl2, 10 mM glucose, 10 mM Hepes, pH 7.4). After 30 min of loading period, cells were treated with Aβ (7.66 μM). The time course of changes in the emission from FURA-2AM was observed using an inverted epi-fluorescence/phase contrast microscope equipped with a low-light level integrating CCD camera+microphotometer assembly (InCy I/P-2 Imaging & Photometry System, Intracellular Imaging INC.)
A 15 minute time course experiment was performed of the intracellular free calcium change in six FURA-2AM loaded PC 12 cells before and after the addition of Aβ (7.66 μM) and Aβ+His-related compound (16.66 μM).
Experiments in this Example were performed to determine if there was concentration dependence blockage of the Aβ-induced intracellular calcium response by NAHIS04. A time course of the intracellular free calcium change was taken in FURA-2AM loaded PC12 cells before and after the addition of Aβ (7.66 μM) to media containing different concentrations of NAHIS04. FIG. 11 illustrates that the concentration of the Aβ channel blocker is important and that the most efficient concentration of NAHIS04 for the blockage occurred at >5 μM.

[3] = system: PC12 cells, cortical and hippocampal neurons; experiment: cells; details: for concentration required for 50% protection (EC50): three different types of cells, three days; for concentration required for 50% protection (EC50) / protection of cells from Aβ cytotoxicity: Aβ peptide 5 μM; for protection of cells from Aβ cytotoxicity: three days of incubation, XTT and LDH, three cell types
Protocol: Cell culture: PC 12 cells, derived from a transplantable rat pheochromocytoma (ATCC # CRL 1721), were cultured in the recommended ATCC medium. Primary cultures of hippocampal and cortical neurons from […] rat brains were grown in neurobasal medium/B27 (GIBCO). For neurons preparation, pregnant rats were anesthetized and killed to extract the fetuses. For pain alleviation, the animals were anesthetized following recommendations in the 2000 Report of the American Veterinary Medical Association Panel on Euthanasia. Brains from the fetuses were dissected out and neuronal cell cultures prepared as in a previously described protocol (Simakova and Arispe, 2006).
Cell viability assays: The percentage of cells protected from Aβ-induced cell death by various treatments was evaluated by means of a colorimetric XTT assay (Cell Proliferation Kit II, Roche, Mannheim, Germany). The cytotoxicity was also directly measured by the release of lactate dehydrogenase (LDH) from the cytosol into the media (Cytotoxicity Detection Kit (LDH), Roche, Mannheim, Germany).
Cell viability was examined using two different assays. These were the colorimetric XTT assay that quantifies metabolically active cells, and an assay that measures the release of lactate dehydrogenase (LDH) from the cytosol into the media, which evaluates the cell membrane integrity. […] The left panels (A, C and E) show the results from the XTT assay expressed as a percentage of cytotoxicity, and the right panels (B, D and F) show the results from the measurements of LDH released from cells into the media expressed as a percentage of protection of cells.

## N[C@@H](Cc1c[nH]cn1)C(=O)O [His, L-histidine, reference compound]
Aβ channel
  blocking of the flow of ionic charges conducted by Aβ channels: very slow-acting or had almost no channel-blocking capacity
  blocking of Aβ channel current activity: only affect the current peaks of 5.8 and 4.2 pA; also recorded: mildly reduces the Aβ channel activity

## CC(C)[C@H](NC(=O)[C@H](CCC(=O)O)NC(=O)[C@H](Cc1ccc(O)cc1)NC(=O)CNC(=O)[C@@H](N)CO)C(=O)N[C@@H](Cc1c[nH]cn1)C(=O)N[C@@H](Cc1c[nH]cn1)C(=O)O [NA4, SGYEVHH, reference compound] (H-SGYEVHH-OH)
PC12 cells [1]; Example 5, LDH release, three days
  protection of PC12 cells from Aβ cytotoxicity: not as effective at blocking the Aβ channel as NAHIS04

## CC(=O)N[C@@H](CO)C(=O)NCC(=O)N[C@@H](Cc1ccc(O)cc1)C(=O)N[C@@H](CCC(=O)O)C(=O)N[C@H](C(=O)N[C@@H](Cc1c[nH]cn1)C(=O)N[C@@H](Cc1c[nH]cn1)C(N)=O)C(C)C [NA4mod, Ac-SGYEVHH-CONH2] (Ac-SGYEVHH-NH2)
PC12 cells [1]; Example 9, cell viability assay (FIG. 13)
  percent protection of PC12 cells from Aβ cytotoxicity: percent protection is similar to the protection shown by NAHIS04

## CC(=O)N[C@@H](Cc1c[nH]cn1)C(N)=O [NAHIS01, Ac-His-CONH2]
Aβ channel
  blocking of the flow of ionic charges conducted by Aβ channels: does not fully prevent the flow of ionic charges
  blocking of Aβ channel current activity: more effective at reducing all current peaks at much lower concentrations than unmodified His; also recorded: did not operate as a full channel blocker; also recorded: very efficient at blocking the Aβ ion channel

## CC(=O)N[C@@H](Cc1c[nH]cn1)C(=O)N[C@@H](Cc1c[nH]cn1)C(N)=O [NAHIS02, Ac-His-His-CONH2]
Aβ channel
  time to reduce the flow of ionic charges through the membrane by 50%: 125 s
  reversibility of Aβ channel blockage after washing the chamber: reversed; also recorded: some recovery of channel activity
  blocking of Aβ channel current activity: efficiently block the multiple conductances
Aβ channel; 16.66 μM
  effect on Aβ channel current peaks: removed all current peaks
  time to reduce the Aβ channel activity to occasional channel openings: several minutes
  time to totally block the Aβ channel activity: less than three
PC12 cells [2]
  block of Aβ-induced intracellular calcium increase: has the capacity to block Aβ-induced intracellular calcium increase
[3]
  concentration required for 50% protection (EC50): below the micromolar levels

## CC(=O)N[C@@H](Cc1cncn1C)C(=O)N[C@@H](Cc1cncn1C)C(N)=O [NAHIS02-(π-Met), Ac-His-π-Met-His-π-Met-CONH2]
Aβ channel
  blocking of the flow of ionic charges conducted by Aβ channels: showed no blocking capacity
  blocking of Aβ channel current activity: did not affect the Aβ channel activity even at a fourfold higher concentration; also recorded: unable to block the Aβ channel activity even at a fourfold higher concentration
PC12 cells [2]
  block of Aβ-induced intracellular calcium increase: has lost this ability
PC12 cells [1]; Example 6, LDH assay, Aβ40 for 24 hrs
  protection of PC12 cells against Aβ: did not protect the cells against Aβ

## CC(=O)N[C@@H](Cc1c[nH]cn1)C(=O)N[C@@H](Cc1c[nH]cn1)C(=O)N[C@@H](Cc1c[nH]cn1)C(=O)N[C@@H](Cc1c[nH]cn1)C(N)=O [NAHIS04, Ac-His-His-His-His-CONH2] (Ac-HHHH-NH2)
Aβ channel
  time to reduce the flow of ionic charges through the membrane by 50%: 15 s
  reversibility of Aβ channel blockage after washing the chamber: irreversible; also recorded: stayed fully blocked after the chamber was washed
  blocking of Aβ channel current activity: efficiently block the multiple conductances
Aβ channel; 16.66 μM
  effect on Aβ channel current peaks: removed all current peaks
  time to reduce the Aβ channel activity to occasional channel openings: 20 s
Aβ channel; NAHIS04 versus NAHIS02
  speed of 50% reduction of ionic charge flow compared to NAHIS02: eightfold
PC12 cells [2]; 0.83 to 6.64 μM tested
  most efficient concentration for blockage of the Aβ-induced intracellular calcium response: > 5 µM
PC12 cells [1]
  protection of PC12 cells from Aβ cytotoxicity: showed better protection of the cells
PC12 cells [1]; PC12 cells, LDH release, three days of incubation, read-out: concentration required for 50% protection (EC50)
  EC50: < 1000 nM
[3]
  protection of cells from Aβ cytotoxicity: fully protected the three different types of cells against Aβ
  concentration required for 50% protection (EC50): below the micromolar levels

## [Cl][Ni][Cl] [Ni^2+, NiCl2, reference compound]
Aβ channel
  time to block the flow of ionic charges through Aβ channels: 120 s
  reversibility of Aβ channel blockage after washing the chamber: irreversible
  blocking of Aβ channel current activity: full block of the channel
Aβ channel; listed as nickel
  reversibility of Aβ channel blockage after washing the chamber: irreversibly block
[3]; high concentrations
  toxicity of the compound to cells: cell-dependent toxicity at high concentrations
[3]
  protection of cells from Aβ cytotoxicity: fully protect the cells against Aβ cytotoxicity

## c1c[nH]cn1 [imidazole, reference compound]
Aβ channel
  time to block the flow of ionic charges through Aβ channels: 30 s
  reversibility of Aβ channel blockage after washing the chamber: irreversibly block; also recorded: irreversible
  blocking of Aβ channel current activity: full block of the channel
[3]; Rattus norvegicus, PC-12, 72 h, read-out: concentration required for 50% protection (EC50)
  EC50: 2000 to 3000 nM
